Experimental data published in EP1764363A2, “Substituted acetophenonederivatives” (Riemser Arzneimittel AG, priority 2005, dated 2007).
Converted amounts (≈) assume the structure as drawn. “And” between values parts separate entries of the source, which are not always exact repeats. Equal entries are not always repeated. Marks after values point to notes of the source that are not given here.

What was measured:
[1] = tested on: U87MG; assay: Chemosensitivity test (modified MTT test EZ4U); conditions: Homo sapiens, U-87 MG, 96 h, read-out: IC50-Werte
[2] = tested on: SW620; assay: Chemosensitivity test (modified MTT test EZ4U); conditions: Homo sapiens, SW-620, 96 h, read-out: IC50-Werte
[3] = tested on: KAL; assay: Chemosensitivity test (modified MTT test EZ4U); conditions: Homo sapiens, 96 h, read-out: IC50-Werte
[4] = tested on: SKOV3; assay: Chemosensitivity test (modified MTT test EZ4U); conditions: Homo sapiens, SK-OV-3, 96 h, read-out: IC50-Werte
[5] = tested on: SIM; assay: Chemosensitivity test (modified MTT test EZ4U); conditions: Homo sapiens, 96 h, read-out: IC50-Werte
[6] = tested on: CRO2B; assay: Chemosensitivity test (modified MTT test EZ4U); conditions: Homo sapiens, 96 h, read-out: IC50-Werte
[7] = tested on: LNCaP; assay: Chemosensitivity test (modified MTT test EZ4U); conditions: Homo sapiens, 96 h, read-out: IC50-Werte
[8] = tested on: MIAPaCa2; assay: Chemosensitivity test (modified MTT test EZ4U); conditions: for IC50: Homo sapiens, MIA PaCa-2, 96 h, read-out: IC50-Werte; for Zellwachstum in % der Mediumkontrolle: 4 days
[9] = tested on: EW-7; assay: Chemosensitivity test (modified MTT test EZ4U); conditions: Homo sapiens, 96 h, read-out: IC50-Werte
[10] = tested on: J82; assay: Chemosensitivity test (modified MTT test EZ4U); conditions: Homo sapiens, J82, 96 h, read-out: IC50-Werte
[11] = tested on: CaCo-2; assay: Chemosensitivity test (modified MTT test EZ4U); conditions: Homo sapiens, Caco-2, 96 h, read-out: IC50-Werte
[12] = tested on: LAN1; assay: Chemosensitivity test (modified MTT test EZ4U); conditions: Homo sapiens, LAN1, 96 h, read-out: IC50-Werte
[13] = tested on: WI38; assay: Chemosensitivity test (modified MTT test EZ4U); conditions: for IC50: Homo sapiens, WI-38, 96 h, read-out: IC50-Werte; for Zellwachstum in % der Mediumkontrolle: 4 days
[14] = tested on: T47D; assay: Chemosensitivity test (modified MTT test EZ4U); conditions: 4 days
[15] = tested on: Colo205; assay: Cell count determination in a proliferation test; conditions: Homo sapiens, COLO 205, read-out: Inhibition des Zellenwachstums (in %)
[16] = tested on: T47D; assay: Cell count determination in a proliferation test; conditions: Homo sapiens, read-out: Inhibition des Zellenwachstums (in %)
[17] = tested on: Colo205; assay: Chemosensitivity test (modified MTT test EZ4U); conditions: 4 days
[18] = tested on: BT20; assay: Cell count determination in a proliferation test; conditions: Homo sapiens, BT-20, read-out: Inhibition des Zellenwachstums (in %)
[19] = tested on: Staphylococcus aureus (Stamm ATCC 6538); assay: Mouse ear test (in vivo), antiseptic effect; design: key to Keimwachstum (grade): +++: totale Verhinderung des Keimwachstums; ++: Keimwachstum deutlich reduziert aber nicht völlig unterdrückt; conditions: mouse ears infected with S. aureus ATCC 6538; germ count vs infected untreated animal after 18 and 24 h
[20] = Radical scavenger screening with DPPH radicals (DPPH test); conditions: Konzentrationen 500 und 1000µg/ml
Description: […] die 6 Verbindungen HMF2, HMF-3, CH-1, L5, Q20 und […]. Die […] durch den DPPH-Test ermittelt, wobei sich die UV/VIS-Absorption des freien stabilen […] (Diphenyl-β-picrylhydrazin) in Abhängigkeit vom Zustand von […]. Die Auswertung erfolgt qualitativ (dünnschichtchromatographisch) und quantitativ (photometrisch) mit Ascorbinsäure […] Molyneux P. (2004) The use of the stabel free radical diphenylpicrylhydrazyl (DPPH) for estimating antioxidant activity. Songklanakarin J Sci Technol. 26(2): 211-219).

[21] = tested on: Candida albicans; assay: Minimal inhibitory concentration (MHK), microtitre plate, TTC staining; format: cell-based; conditions: 48h, 36°C

IC50 [1]	IC50 [2]	IC50 [4]	IC50 [7]	IC50 [8]	IC50 [11]	Compound	IC50 [3]	IC50 [5]	IC50 [6]	Zellwachstum in % der Mediumkontrolle ([8]; MIAPaCa2 (Pankreas), 5 µg/ml)	Zellwachstum in % der Mediumkontrolle ([8]; MIAPaCa2 (Pankreas), 10 µg/ml)	Zellwachstum in % der Mediumkontrolle ([8]; MIAPaCa2 (Pankreas), 2,5 µg/ml)	IC50 [9]	IC50 [10]	IC50 [12]	IC50 [13]	Zellwachstum in % der Mediumkontrolle ([13]; WI38 (Fibroblasten), 5 µg/ml)	Zellwachstum in % der Mediumkontrolle ([13]; WI38 (Fibroblasten), 10 µg/ml)	Zellwachstum in % der Mediumkontrolle ([13]; WI38 (Fibroblasten), 2,5 µg/ml)	Keimwachstum (grade) [19]	also measured
> 200 µg/mL	9.7 µg/mL (≈ 39.7 µM)	> 200 µg/mL	9.5 µg/mL (≈ 38.9 µM)	> 200 µg/mL	> 200 µg/mL	O=C(/C=C/c1ccc(CO)o1)c1ccccc1O [HMF-3, 3-(5-Hydroxymethylfuran-2-yl)-1-(2-hydroxyphenyl)-propenon]	> 200 µg/mL	> 200 µg/mL	> 200 µg/mL	81,80%	50,60%	84,10%	5.25 µg/mL (≈ 21.5 µM)	> 200 µg/mL	20 µg/mL (≈ 81.9 µM)	20 µg/mL (≈ 81.9 µM)	64,70%	81,50%	92%		Zellwachstum in % der Mediumkontrolle ([14]; T47D (Mamakarzinom), 5 µg/ml): 50,00%; Zellwachstum in % der Mediumkontrolle ([14]; T47D (Mamakarzinom), 10 µg/ml): 50,20%; Zellwachstum in % der Mediumkontrolle ([14]; T47D (Mamakarzinom), 2,5 µg/ml): 39,10%; inhibition at 50 µg/mL [15]: 3.5%; inhibition at 50 µg/mL [16]: 57%; Zellwachstum in % der Mediumkontrolle ([17]; Colo205 (Colon), 5 µg/ml): 68%; Zellwachstum in % der Mediumkontrolle ([17]; Colo205 (Colon), 10 µg/ml): 82,60%; Zellwachstum in % der Mediumkontrolle ([17]; Colo205 (Colon), 2,5 µg/ml): 85,90%; inhibition at 50 µg/mL [18]: 15.7%
> 200 µg/mL	0.85 µg/mL (≈ 3.24 µM)	36 µg/mL (≈ 137 µM)	3.25 µg/mL (≈ 12.4 µM)	10 µg/mL (≈ 38.1 µM)	17.5 µg/mL (≈ 66.6 µM)	O=C(/C=C/c1ccc(CO)o1)c1ccc(Cl)cc1 [HMF-2, 1-(4-Chlorophenyl)-3-(5-hydroxymethylfuran-2-yl)propenon]	45 µg/mL (≈ 171 µM)	> 200 µg/mL	50 µg/mL (≈ 190 µM)	91,10%	74,60%	84,30%	0.3 µg/mL (≈ 1.14 µM)	47 µg/mL (≈ 179 µM)	4.25 µg/mL (≈ 16.2 µM)	4.9 µg/mL (≈ 18.7 µM)	92,90%	10,60%	104,7%	+++	Zellwachstum in % der Mediumkontrolle ([14]; T47D (Mamakarzinom), 5 µg/ml): 25,60%; Zellwachstum in % der Mediumkontrolle ([14]; T47D (Mamakarzinom), 10 µg/ml): 4,90%; Zellwachstum in % der Mediumkontrolle ([14]; T47D (Mamakarzinom), 2,5 µg/ml): 28,10%; inhibition at 50 µg/mL [15]: 35.6%; inhibition at 50 µg/mL [16]: 75.6%; Zellwachstum in % der Mediumkontrolle ([17]; Colo205 (Colon), 5 µg/ml): 78,6%; Zellwachstum in % der Mediumkontrolle ([17]; Colo205 (Colon), 10 µg/ml): 41,30%; Zellwachstum in % der Mediumkontrolle ([17]; Colo205 (Colon), 2,5 µg/ml): 84,80%; inhibition at 50 µg/mL [18]: 74%
						CC(C)=CCOc1ccccc1C(C)=C(C#N)C#N [L5, 2-{1-[2-(3-Methylbut-2-enyloxy}phenyl]ethyliden}-malononitril]														+++	Radikalfänger-Effekt [20]: 60%
						C[C@@H]1[C@H](O)[C@@H](C)/C=C/C=C/CC/C=C/C=C/C=C/C=C/C(O[C@H]2O[C@H](C)[C@@H](O)[C@H](N)[C@@H]2O)CC2O[C@](O)(CC(O)C(O)CCC(O)CC(O)CC(O)CC(=O)O[C@H]1C)CC(O)C2C(=O)O (stereo partly shown) [Nistatin, reference compound]															MHK-Werte [21]: 0,05** mg/ml and 0,12** mg/ml
						COc1ccc(C=CC(=O)c2ccccc2O)cc1 [CH-1, 1-(2-Hydroxyphenyl)-3-(4-methoxyphenyl)propenon]														++	
